What was measured:
Type in all cases: cell-based
Details in all cases: after 10, 20, 40 and 60 minutes at all dilutions 1:100, 1:200, 1:400, 1:800
Staphylococcus aureus = test: Antimicrobial screening by agar dilution, Staphylococcus aureus
Description: (§1) The antibacterial properties of the synthesized compound (10-(2-hydroxyethyl)-9-(2-hydroxypyridin-3-yl)-3,4,6,7,9,10-hexahydroacridine-1,8(2H,5H)-dione) were studied by the method of agar dilution. Test solutions of each compound was prepared in concentration of 1% using dimethylformamide as a solvent then they are diluted in physiological solution to obtain the final experimental dilutions 1:100, 1:200, 1:400, 1:800. The effect of these substances are compared with furacillin in a controllable study. The testing microbes used were gram positive bacteria Staphylococcus aureus, gram negative bacteria Pseudomonas aeruginosa and Escherichia coli and Candida albicans fungus. The experiments used for this survey were meat-pentonlu agar (EPA) for cultivation of bacteria and Saburo environment for the fungus. Each experiment used 1 mL of test solution on each plate […]. Two drops of emulsified with microbes feel were added. All experimental samples were taken from the agar after 10, 20, 40, 60 minutes in the environment on the basis of Patrk planted. The bacteria were cultivated at a temperature of 37° C. for 1 day and the mushroom was kept in a thermostat for 2 hours at a temperature of 28° C. Then results were checked.

Escherichia coli = test: Antimicrobial screening by agar dilution, Escherichia coli
Description: as §1

Pseudomonas aeruginosa = test: Antimicrobial screening by agar dilution, Pseudomonas aeruginosa
Description: as §1

Candida albicans = test: Antimicrobial screening by agar dilution, Candida albicans
Description: as §1

Measured: inhibition activity

O=C1CCCC2=C1C(c1cccnc1O)C1=C(CCCC1=O)N2CCO [10-(2-hydroxyethyl)-9-(2-hydroxypyridin-3-yl)-3,4,6,7,9,10-hexahydroacridine-1,8(2H,5H)-dione]
highest inhibition activity: Staphylococcus aureus | Escherichia coli | Pseudomonas aeruginosa | Candida albicans

Reference: patent publication US11987570B1, “10-(2-hydroxyethyl)-9-(2-hydroxypyridin-3-yl)-3,4,6,7,9,10-hexahydroacridine-1,8(2H,5H)-dione as an antimicrobial compound” (KING FAISAL UNIVERSITY, priority 2023, dated 2024)
